Source: ChEMBL document CHEMBL4507259 (2021)

Columns and labels:
[1] = biological target: Type-1 angiotensin II receptor (Homo sapiens) (UniProt P30556); test: AT1 (h) CEREP ligand profiling; conditions: filed as antagonist, Compound concentration 10.0 uM
[2] = biological target: RAC-gamma serine/threonine-protein kinase (Homo sapiens) (UniProt Q9Y243); conditions: Compound concentration 1000.0 nM
[3] = biological target: Sulfonylurea receptors; K-ATP channels (Homo sapiens) (UniProt Q14654+O60706+Q09428+Q15842); test: KATP channel CEREP ligand profiling; type: protein-complex assay; conditions: filed as antagonist; Compound concentration 10.0 uM
[4] = biological target: Maternal embryonic leucine zipper kinase (Homo sapiens) (UniProt Q14680); conditions: Compound concentration 1000.0 nM
[5] = biological target: Calcium/calmodulin-dependent protein kinase kinase 2 (Homo sapiens) (UniProt Q96RR4); conditions: Compound concentration 1000.0 nM
[6] = biological target: Serine/threonine-protein kinase BRSK2 (Homo sapiens) (UniProt Q8IWQ3); conditions: Compound concentration 1000.0 nM
[7] = biological target: ALK tyrosine kinase receptor (Homo sapiens) (UniProt Q9UM73); conditions: Compound concentration 1000.0 nM
Sequence of ALK tyrosine kinase receptor (Homo sapiens) (Q9UM73 19-1620 limits assumed): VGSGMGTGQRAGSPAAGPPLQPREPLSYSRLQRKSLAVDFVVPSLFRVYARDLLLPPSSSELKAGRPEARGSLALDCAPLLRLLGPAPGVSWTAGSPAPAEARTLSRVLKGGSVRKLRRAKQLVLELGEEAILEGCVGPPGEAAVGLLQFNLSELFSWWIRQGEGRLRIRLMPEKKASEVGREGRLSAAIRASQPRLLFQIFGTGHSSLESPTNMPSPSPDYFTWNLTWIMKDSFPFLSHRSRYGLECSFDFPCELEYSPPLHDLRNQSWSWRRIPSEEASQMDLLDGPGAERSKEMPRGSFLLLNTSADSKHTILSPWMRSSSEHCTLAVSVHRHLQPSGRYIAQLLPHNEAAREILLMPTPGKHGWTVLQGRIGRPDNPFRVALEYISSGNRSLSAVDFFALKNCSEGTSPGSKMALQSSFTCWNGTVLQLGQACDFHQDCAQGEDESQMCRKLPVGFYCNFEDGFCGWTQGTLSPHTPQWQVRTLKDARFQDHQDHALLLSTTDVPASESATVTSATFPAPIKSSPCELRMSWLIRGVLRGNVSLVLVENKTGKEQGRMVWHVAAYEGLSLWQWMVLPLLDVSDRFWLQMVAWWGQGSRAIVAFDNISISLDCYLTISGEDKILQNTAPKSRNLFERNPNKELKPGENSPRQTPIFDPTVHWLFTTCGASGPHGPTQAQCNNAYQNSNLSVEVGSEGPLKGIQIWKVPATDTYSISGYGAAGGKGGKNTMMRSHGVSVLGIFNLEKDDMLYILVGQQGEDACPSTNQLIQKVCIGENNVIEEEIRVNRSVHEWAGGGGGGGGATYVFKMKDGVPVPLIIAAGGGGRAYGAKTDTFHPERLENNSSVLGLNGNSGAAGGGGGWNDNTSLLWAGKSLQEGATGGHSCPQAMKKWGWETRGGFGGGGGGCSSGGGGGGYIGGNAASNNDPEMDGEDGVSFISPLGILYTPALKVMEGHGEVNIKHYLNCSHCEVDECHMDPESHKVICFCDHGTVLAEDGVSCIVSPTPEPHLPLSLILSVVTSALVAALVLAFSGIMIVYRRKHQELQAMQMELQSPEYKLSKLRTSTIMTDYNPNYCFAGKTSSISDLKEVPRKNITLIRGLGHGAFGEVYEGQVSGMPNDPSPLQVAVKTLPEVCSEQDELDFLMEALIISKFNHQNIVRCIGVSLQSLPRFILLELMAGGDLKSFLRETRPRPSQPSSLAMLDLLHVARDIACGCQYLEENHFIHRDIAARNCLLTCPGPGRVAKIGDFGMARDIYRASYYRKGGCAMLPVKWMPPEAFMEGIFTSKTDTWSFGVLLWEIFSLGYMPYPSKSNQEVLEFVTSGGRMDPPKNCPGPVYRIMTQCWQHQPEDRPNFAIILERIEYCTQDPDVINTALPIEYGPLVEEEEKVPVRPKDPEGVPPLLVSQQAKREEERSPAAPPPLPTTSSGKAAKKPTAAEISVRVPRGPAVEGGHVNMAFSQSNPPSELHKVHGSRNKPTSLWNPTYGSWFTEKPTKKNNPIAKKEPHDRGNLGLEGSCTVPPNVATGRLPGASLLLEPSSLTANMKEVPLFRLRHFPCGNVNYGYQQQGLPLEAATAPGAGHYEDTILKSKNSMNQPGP

[8] = biological target: Ephrin type-A receptor 4 (Homo sapiens) (UniProt P54764); conditions: Compound concentration 1000.0 nM
Sequence of Ephrin type-A receptor 4 (Homo sapiens) (P54764 whole entry): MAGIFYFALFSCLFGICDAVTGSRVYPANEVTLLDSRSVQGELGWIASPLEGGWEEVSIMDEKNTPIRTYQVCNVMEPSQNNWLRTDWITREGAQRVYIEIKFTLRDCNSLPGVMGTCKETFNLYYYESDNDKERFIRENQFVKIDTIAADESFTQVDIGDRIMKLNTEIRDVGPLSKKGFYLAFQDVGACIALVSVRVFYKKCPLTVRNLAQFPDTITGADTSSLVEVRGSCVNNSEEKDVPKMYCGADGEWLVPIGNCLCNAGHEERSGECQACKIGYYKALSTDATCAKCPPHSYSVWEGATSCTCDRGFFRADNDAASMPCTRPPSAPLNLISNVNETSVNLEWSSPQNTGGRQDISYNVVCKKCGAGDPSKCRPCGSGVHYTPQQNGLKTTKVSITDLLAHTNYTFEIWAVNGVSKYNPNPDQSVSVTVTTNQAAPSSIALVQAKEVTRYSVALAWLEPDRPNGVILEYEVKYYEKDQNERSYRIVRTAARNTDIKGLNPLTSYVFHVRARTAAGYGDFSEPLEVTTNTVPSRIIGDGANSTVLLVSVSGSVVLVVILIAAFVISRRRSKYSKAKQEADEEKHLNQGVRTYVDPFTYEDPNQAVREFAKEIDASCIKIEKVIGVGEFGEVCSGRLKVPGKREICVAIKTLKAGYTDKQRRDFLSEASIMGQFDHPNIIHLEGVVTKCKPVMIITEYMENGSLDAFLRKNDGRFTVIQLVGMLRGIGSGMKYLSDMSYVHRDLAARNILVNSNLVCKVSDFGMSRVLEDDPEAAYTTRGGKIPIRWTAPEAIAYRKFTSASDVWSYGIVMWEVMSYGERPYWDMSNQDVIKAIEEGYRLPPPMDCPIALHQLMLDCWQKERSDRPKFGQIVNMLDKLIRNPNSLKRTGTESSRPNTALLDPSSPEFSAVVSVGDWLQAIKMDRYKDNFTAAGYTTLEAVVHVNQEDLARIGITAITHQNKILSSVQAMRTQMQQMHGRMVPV

[9] = biological target: Serine/threonine-protein kinase Nek10 (Homo sapiens) (UniProt Q6ZWH5); conditions: Compound concentration 1000.0 nM
[10] = biological target: Serine/threonine-protein kinase TAO3 (Homo sapiens) (UniProt Q9H2K8); conditions: Compound concentration 1000.0 nM
[11] = biological target: Serine/threonine-protein kinase MAK (Homo sapiens) (UniProt P20794); conditions: Compound concentration 1000.0 nM
Sequence of Serine/threonine-protein kinase MAK (Homo sapiens) (P20794 whole entry): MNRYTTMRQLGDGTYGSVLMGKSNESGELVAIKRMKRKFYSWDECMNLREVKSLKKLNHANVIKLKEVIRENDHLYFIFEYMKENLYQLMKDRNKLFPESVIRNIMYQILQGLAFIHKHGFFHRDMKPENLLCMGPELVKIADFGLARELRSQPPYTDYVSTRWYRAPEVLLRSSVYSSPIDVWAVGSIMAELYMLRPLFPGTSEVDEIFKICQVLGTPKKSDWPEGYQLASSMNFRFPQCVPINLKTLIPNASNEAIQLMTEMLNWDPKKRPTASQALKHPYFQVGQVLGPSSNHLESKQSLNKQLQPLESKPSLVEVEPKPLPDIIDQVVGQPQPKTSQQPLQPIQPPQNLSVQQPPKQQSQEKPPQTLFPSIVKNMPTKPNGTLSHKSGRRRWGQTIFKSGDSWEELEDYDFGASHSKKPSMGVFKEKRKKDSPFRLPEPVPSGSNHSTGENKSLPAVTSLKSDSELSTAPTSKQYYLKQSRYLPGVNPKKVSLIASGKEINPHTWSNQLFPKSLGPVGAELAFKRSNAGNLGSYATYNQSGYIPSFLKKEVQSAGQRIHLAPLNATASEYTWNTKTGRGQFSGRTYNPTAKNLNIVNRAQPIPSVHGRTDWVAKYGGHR

[12] = biological target: Proto-oncogene tyrosine-protein kinase Src (Homo sapiens) (UniProt P12931); conditions: Compound concentration 1000.0 nM
Sequence of Proto-oncogene tyrosine-protein kinase Src (Homo sapiens) (P12931 2-536 limits assumed): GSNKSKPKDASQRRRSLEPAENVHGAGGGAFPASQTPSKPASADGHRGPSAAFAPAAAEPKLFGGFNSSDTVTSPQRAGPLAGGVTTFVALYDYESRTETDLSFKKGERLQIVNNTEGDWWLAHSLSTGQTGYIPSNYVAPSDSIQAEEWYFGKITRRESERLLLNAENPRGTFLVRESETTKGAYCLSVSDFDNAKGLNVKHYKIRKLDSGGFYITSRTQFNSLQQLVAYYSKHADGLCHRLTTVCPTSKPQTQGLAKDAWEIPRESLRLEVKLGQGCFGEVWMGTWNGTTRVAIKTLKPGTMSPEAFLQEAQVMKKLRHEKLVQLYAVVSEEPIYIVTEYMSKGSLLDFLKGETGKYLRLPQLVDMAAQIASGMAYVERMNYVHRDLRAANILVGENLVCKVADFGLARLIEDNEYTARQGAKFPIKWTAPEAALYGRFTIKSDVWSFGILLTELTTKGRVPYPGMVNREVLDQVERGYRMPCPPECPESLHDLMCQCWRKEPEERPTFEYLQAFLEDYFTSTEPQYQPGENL

[13] = biological target: T1, Muscarinic acetylcholine receptor M1 (Homo sapiens) (UniProt P11229); conditions: Compound concentration 10.0 uM
T1 sequence (whole entry): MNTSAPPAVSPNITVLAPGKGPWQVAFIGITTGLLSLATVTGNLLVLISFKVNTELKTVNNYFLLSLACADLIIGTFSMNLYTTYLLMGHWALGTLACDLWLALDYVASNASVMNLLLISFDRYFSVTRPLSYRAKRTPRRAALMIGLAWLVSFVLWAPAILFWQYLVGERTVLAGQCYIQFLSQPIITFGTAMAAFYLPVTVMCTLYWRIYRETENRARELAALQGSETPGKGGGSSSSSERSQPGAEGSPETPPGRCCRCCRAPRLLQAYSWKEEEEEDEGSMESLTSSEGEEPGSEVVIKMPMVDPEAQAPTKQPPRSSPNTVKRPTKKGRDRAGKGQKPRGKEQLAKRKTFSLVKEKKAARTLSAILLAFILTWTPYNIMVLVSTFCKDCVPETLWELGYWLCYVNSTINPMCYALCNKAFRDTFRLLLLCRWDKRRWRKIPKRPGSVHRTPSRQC

[14] = biological target: Hepatocyte growth factor receptor (Homo sapiens) (UniProt P08581); conditions: Compound concentration 1000.0 nM
[15] = biological target: Glycogen synthase kinase-3 alpha (Homo sapiens) (UniProt P49840); conditions: Compound concentration 1000.0 nM
[16] = biological target: Serine/threonine-protein kinase Sgk1 (Homo sapiens) (UniProt O00141); conditions: Compound concentration 1000.0 nM
[17] = system: Tyrosine-protein kinase ABL1 (Homo sapiens), P00519 [Q252H]; conditions: Compound concentration 1000.0 nM
[18] = biological target: Beta-1 adrenergic receptor (Homo sapiens) (UniProt P08588); conditions: Compound concentration 10.0 uM
[19] = biological target: Serine/threonine-protein kinase Nek6 (Homo sapiens) (UniProt Q9HC98); conditions: Compound concentration 1000.0 nM
[20] = biological target: 5-hydroxytryptamine receptor 1E (Homo sapiens) (UniProt P28566); conditions: Compound concentration 10.0 uM
Sequence of 5-hydroxytryptamine receptor 1E (Homo sapiens) (P28566 whole entry): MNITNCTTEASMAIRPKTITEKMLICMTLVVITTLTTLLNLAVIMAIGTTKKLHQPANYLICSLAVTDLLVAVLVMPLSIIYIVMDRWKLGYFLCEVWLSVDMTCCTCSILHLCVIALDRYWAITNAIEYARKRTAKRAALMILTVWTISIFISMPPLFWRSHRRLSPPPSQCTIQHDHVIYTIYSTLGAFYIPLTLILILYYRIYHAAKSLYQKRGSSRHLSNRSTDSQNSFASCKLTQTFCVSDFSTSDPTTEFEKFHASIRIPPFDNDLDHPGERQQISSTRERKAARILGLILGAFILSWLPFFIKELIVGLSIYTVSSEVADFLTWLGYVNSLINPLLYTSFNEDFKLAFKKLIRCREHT

[21] = biological target: Serine/threonine-protein kinase 24 (Homo sapiens) (UniProt Q9Y6E0); conditions: Compound concentration 1000.0 nM
[22] = biological target: 5-hydroxytryptamine receptor 2A (Homo sapiens) (UniProt P28223); test: 5-HT2A (h) CEREP ligand profiling; conditions: filed as antagonist, Compound concentration 10.0 uM
[23] = biological target: Receptor-interacting serine/threonine-protein kinase 1 (Homo sapiens) (UniProt Q13546); conditions: Compound concentration 1000.0 nM
[24] = biological target: Serine/threonine-protein kinase 38 (Homo sapiens) (UniProt Q15208); conditions: Compound concentration 1000.0 nM
[25] = biological target: Histamine H1 receptor (Homo sapiens) (UniProt P35367); conditions: Compound concentration 10.0 uM
[26] = biological target: Myosin light chain kinase family member 4 (Homo sapiens) (UniProt Q86YV6); conditions: Compound concentration 1000.0 nM
[27] = biological target: Epithelial discoidin domain-containing receptor 1 (Homo sapiens) (UniProt Q08345); conditions: Compound concentration 1000.0 nM
Sequence of Epithelial discoidin domain-containing receptor 1 (Homo sapiens) (Q08345 whole entry, the tested form may be a part): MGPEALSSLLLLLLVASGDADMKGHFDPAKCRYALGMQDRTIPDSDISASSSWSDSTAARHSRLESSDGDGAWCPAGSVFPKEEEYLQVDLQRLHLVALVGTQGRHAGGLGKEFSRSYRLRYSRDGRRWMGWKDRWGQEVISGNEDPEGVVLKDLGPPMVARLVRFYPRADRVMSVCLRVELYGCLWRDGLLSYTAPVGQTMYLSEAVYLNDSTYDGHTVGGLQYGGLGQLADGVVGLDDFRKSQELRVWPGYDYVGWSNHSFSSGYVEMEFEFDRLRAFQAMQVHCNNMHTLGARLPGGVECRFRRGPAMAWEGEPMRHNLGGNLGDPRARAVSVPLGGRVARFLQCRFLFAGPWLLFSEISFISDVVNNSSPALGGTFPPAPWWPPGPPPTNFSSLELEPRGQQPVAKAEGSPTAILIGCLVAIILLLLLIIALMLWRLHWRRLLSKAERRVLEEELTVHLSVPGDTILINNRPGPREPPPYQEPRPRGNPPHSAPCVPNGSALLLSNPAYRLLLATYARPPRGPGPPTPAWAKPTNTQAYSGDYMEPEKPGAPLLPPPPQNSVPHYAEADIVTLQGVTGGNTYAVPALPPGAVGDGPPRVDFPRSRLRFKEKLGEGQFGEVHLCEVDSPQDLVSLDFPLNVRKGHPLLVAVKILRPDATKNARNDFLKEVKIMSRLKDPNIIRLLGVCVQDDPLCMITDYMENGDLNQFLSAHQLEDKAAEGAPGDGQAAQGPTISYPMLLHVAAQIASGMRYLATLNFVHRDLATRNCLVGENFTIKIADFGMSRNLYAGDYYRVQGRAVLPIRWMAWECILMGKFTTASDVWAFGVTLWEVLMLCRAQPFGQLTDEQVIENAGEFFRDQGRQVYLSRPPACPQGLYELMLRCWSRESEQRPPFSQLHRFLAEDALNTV

[28] = biological target: Fibroblast growth factor receptor 2 (Homo sapiens) (UniProt P21802); conditions: Compound concentration 1000.0 nM
[29] = system: Epidermal growth factor receptor (Homo sapiens), P00533 [T790M]; conditions: Compound concentration 1000.0 nM
[30] = biological target: Calcium/calmodulin-dependent protein kinase type II subunit alpha (Homo sapiens) (UniProt Q9UQM7); conditions: Compound concentration 1000.0 nM
[31] = biological target: Aurora kinase A (Homo sapiens) (UniProt O14965); conditions: Compound concentration 1000.0 nM
[32] = biological target: Mitogen-activated protein kinase 12 (Homo sapiens) (UniProt P53778); conditions: Compound concentration 1000.0 nM
[33] = biological target: Serine/threonine-protein kinase PRP4 homolog (Homo sapiens) (UniProt Q13523); conditions: Compound concentration 1000.0 nM
[34] = biological target: Myosin-IIIb (Homo sapiens) (UniProt Q8WXR4); conditions: Compound concentration 1000.0 nM
[35] = biological target: Ephrin type-A receptor 3 (Homo sapiens) (UniProt P29320); conditions: Compound concentration 1000.0 nM
[36] = biological target: Mitogen-activated protein kinase kinase kinase 2 (Homo sapiens) (UniProt Q9Y2U5); conditions: Compound concentration 1000.0 nM
[37] = biological target: D(4) dopamine receptor (Homo sapiens) (UniProt P21917); conditions: Compound concentration 10.0 uM
[38] = biological target: Serine/threonine-protein kinase PAK 1 (Homo sapiens) (UniProt Q13153); conditions: Compound concentration 1000.0 nM
[39] = biological target: AP2-associated protein kinase 1 (Homo sapiens) (UniProt Q2M2I8); conditions: Compound concentration 1000.0 nM

CNC(=O)Nc1ccc2c(c1)[C@@]1(CC2)OC(=O)N(CC(=O)N(Cc2ccc(F)cc2)[C@@H](C)C(F)(F)F)C1=O [A-486]
inactive: inhibition [1] 17% | residual activity [2] 94% | inhibition [3] 19% | residual activity [4] 100% | residual activity [5] 99% | residual activity [6] 90% | residual activity [7] 77% | residual activity [8] 86% | residual activity [9] 91% | residual activity [10] 82% | residual activity [11] 100% | residual activity [12] 90% | inhibition [13] 5.42% | residual activity [14] 100% | residual activity [15] 92% | residual activity [16] 54% | residual activity [17] 97% | inhibition [18] -4.4% | residual activity [19] 100% | inhibition [20] 0.33% | residual activity [21] 100% | inhibition [22] 8% | residual activity [23] 93% | residual activity [24] 79% | inhibition [25] -7.68% | residual activity [26] 100% | residual activity [27] 100% | residual activity [28] 87% | residual activity [29] 73% | residual activity [30] 100% | residual activity [31] 79% | residual activity [32] 96% | residual activity [33] 90% | residual activity [34] 100% | residual activity [35] 100% | residual activity [36] 100% | inhibition [37] 8.38% | residual activity [38] 98% | residual activity [39] 100%

CNC(=O)Nc1ccc2c(c1)CC[C@@]21OC(=O)N(CC(=O)N(Cc2ccc(F)cc2)[C@@H](C)C(F)(F)F)C1=O [A-485]
inactive: inhibition [1] 18% | residual activity [2] 100% | inhibition [3] 24% | residual activity [4] 91% | residual activity [5] 76% | residual activity [6] 70% | residual activity [7] 68% | residual activity [8] 89% | residual activity [9] 81% | residual activity [10] 74% | residual activity [11] 84% | residual activity [12] 91% | inhibition [13] 2.64% | residual activity [14] 88% | residual activity [15] 99% | residual activity [16] 63% | residual activity [17] 81% | inhibition [18] -5.22% | residual activity [19] 86% | inhibition [20] 4.23% | residual activity [21] 90% | inhibition [22] 14% | residual activity [23] 100% | residual activity [24] 100% | inhibition [25] 1.99% | residual activity [26] 70% | residual activity [27] 100% | residual activity [28] 88% | residual activity [29] 73% | residual activity [30] 91% | residual activity [31] 80% | residual activity [32] 63% | residual activity [33] 86% | residual activity [34] 88% | residual activity [35] 100% | residual activity [36] 100% | inhibition [37] 7.26% | residual activity [38] 88% | residual activity [39] 100%
